Reference: US20200182856A1, “Method of Evaluating Nutriture” (OTSUKA PHARMACEUTICAL CO., LTD., priority 2016, published 2020)

Columns and labels:
[1] = Breath test using 13C-alanine in ZDF fatty rats F1 and F2; settings: fed, 50 μmol/kg orally, from the start of the administration
Protocol: ZDF fatty rats F1 and F2 mentioned above were placed in the light-dark cycle as described above. 1-^13C-alanine dissolved in physiological saline was administered orally at 50 μmol/kg. Expired air samples were collected before the administration (0 minutes) and at several time points up to 60 minutes after the administration and Δ^13C (%) values were measured using a mass spectrometer for breath analysis (“ABCA” Sercon).

[2] = Breath test using 13C-amino acid in fed and fasted ZDF lean rats; settings: 50 μmol/kg orally; for time for which the tendency (Δ^13C higher in fasted than in fed state) continued: expired air collected up to 60 minutes
Protocol: ZDF lean rats were placed in the fed/fasted state and the light-dark cycle as described above. 1-^13C-leucine, 1-^13C-alanine, or 1-^13C-glutamic acid (Cambridge Isotope Laboratories, Inc (Andover, Mass., USA)) dissolved in physiological saline was administered orally at 50 μmol/kg each (n=4 for each amino acid) at 13:00 of Day 2 in the fed state or 13:00 of Day 3 in the fasted state. Expired air samples were collected before the administration (0 minutes) and at several time points up to 60 minutes after the administration and Δ^13C (%) values were measured using a mass spectrometer for breath analysis (“ABCA” Sercon).

[3] = ZDF fatty rats (diabetes model), fed, 50 μmol/kg orally, from the start of the administration to the end of the measurement (60 minutes)
Protocol: ZDF fatty rats F1, F2, and F3 mentioned above were placed in the light-dark cycle as described above. 1-^13C-glutamic acid dissolved in physiological saline was administered orally at 50 μmol/kg. Expired air samples were collected before the administration (0 minutes) and at several time points up to 60 minutes after the administration and Δ^13C (%) values were measured using a mass spectrometer for breath analysis (“ABCA” Sercon).

Compound | time after the administration up to which Δ^13C was higher in F1 rat than in F2 rat [1] | time for which the tendency (Δ^13C higher in fasted than in fed state) continued [2] | Δ^13C (%) values of expired air, F1 rat (suspected sarcopenia) compared with F2 and F3 rats [3] | Δ^13C (%) values of expired air, fasted state compared with fed state ([2]; 10 minutes after the administration, n=4 for each amino acid)
C[C@H](N)[13C](=O)O [1-^13C-alanine] | about 50 minutes | ~20 min | – | –
N[C@@H](CCC(=O)O)[13C](=O)O [1-^13C-glutamic acid] | – | ~40 min | higher in F1 rat than in F2 and F3 rats | higher in the fasted state than in the fed state
CC(C)C[C@H](N)[13C](=O)O [1-^13C-leucine] | – | about 45 minutes | – | –
